This assay deals with T1, human cathepsin L (Homo sapiens, UniProt P07711).
T1 construct: gene CTSL
Description: fluorogenic Cbz-Phe-Arg-AMC hydrolysis with inner-filter correction, confirmed by HPLC-based assay. Format: biochemical.

T1 sequence (P07711 114-288): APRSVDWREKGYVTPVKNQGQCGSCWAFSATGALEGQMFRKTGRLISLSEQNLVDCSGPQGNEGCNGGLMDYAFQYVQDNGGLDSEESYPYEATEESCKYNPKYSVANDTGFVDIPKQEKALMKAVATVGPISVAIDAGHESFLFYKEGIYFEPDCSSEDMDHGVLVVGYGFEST
T1 sequence (P07711 292-333): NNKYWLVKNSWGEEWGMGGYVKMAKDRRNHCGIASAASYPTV

The term IC50 denotes the concentration at which inhibition is half-maximal. In the case of `CC(C)=CCC/C(C)=C/CC/C(C)=C/CN1C(=O)c2cccc(O)c2Nc2c(O)cc(O)cc21` [compound 1, diazepinomicin], the half-maximal inhibitory concentration (IC50) was found to be 72.4 ± 5.3 µM.
